Data taken from patent US20130338574A1, “ORAL MEDICINAL COMPOSITION FOR PATIENTS UNDERGOING PERITONEAL DIALYSIS AND METHOD FOR USING SAME” (TOKAI UNIVERSITY EDUCATIONAL SYSTEM, priority 2010, published 2013).

Experiments:
[1] = test system: pentosidine in the peritoneal tissue; experiment: Peritoneum protective effect: pentosidine in peritoneal tissue of uremic rat models (Experimental Example 4); format: in vivo, rats; settings: oral 30 mg/rat/day, 7 days
Method: The protective effect of oral administration of a pyridoxamine salt on the deterioration of the peritoneum caused by peritoneal dialysis was evaluated. More specifically, uremic rat models were subjected to intraperitoneal administration of a peritoneal dialysis fluid together with oral administration of a pyridoxamine salt, and the concentration of pentosidine in the peritoneal tissue, which was an indicator of tissue degeneration caused by enhanced carbonyl stress, was measured. Pentosidine is an advanced glycation/lipoxidation end product (AGE). Kidney subtotal excision rats were produced in the same manner as in Experimental Example 2. […] The sample for pentosidine measurement prepared in the above manner was subjected to HPLC under the following conditions, and pentosidine contained in the peritoneum was quantitatively analyzed. The quantitative analysis was performed using a standard calibration curve previously prepared by measurement under the following HPLC conditions using standard solutions of synthetic pentosidine of known concentrations. […] Stationary phase: C18 column (Puresil, 4.6×250 mm, 5 μm; Nihon Waters K.K.) Flow rate: 0.8 mL/min Detection: Fluorescence detection (excitation wavelength: 335 nm/absorption wavelength: 385 nm) (fluorescence detector: Shimadzu Corporation) Sample volume: 20 μL

[2] = test system: dicarbonyl compounds (3-deoxyglucosone) in the intraperitoneal fluid; experiment: 3-deoxyglucosone in intraperitoneal fluid of uremic rat models, neutral peritoneal dialysis fluid (Experimental Example 3); format: in vivo, rats; settings: oral 30 mg/rat/day, 7 days
Source text: Kidney subtotal excision rats with chronic renal failure (uremic rat models) were produced in the same manner as in Experimental Example 2. Distilled water for injection was orally administered compulsorily to Group 1 (control group) (n=3) once a day, and the pyridoxamine salt aqueous solution was orally administered compulsorily to Group 2 (pyridoxamine salt orally administered group) once a day. On the 6th day of administration, after distilled water for injection and the pyridoxamine salt aqueous solution were orally administered, respectively, to Groups 1 and 2, 20 ml of a neutral peritoneal dialysis fluid (pH 6.5 to 7.5) to be mixed before use (trade name: Dianeal (registered trademark)-N PD-4-1.5 mixture; Baxter Limited) (Table 1) was injected intraperitoneally to both groups, in place of the acid peritoneal dialysis fluid administered in Experimental Example 2. As explained in Experimental Example 1, the peritoneal dialysis fluid was composed of an upper-compartment solution and a lower-compartment solution separated by a partition, and both solutions were mixed immediately before being injected into the peritoneal cavity. […] The concentration of dicarbonyl compounds (3-deoxyglucosone) in the intraperitoneal fluid of each group was measured by HPLC in the same manner as in Experimental Example 2.

Cc1ncc(CO)c(CN)c1O.Cl.Cl [pyridoxamine dihydrochloride, Pyridoxamine dihydrochloride]
pentosidine concentration in the peritoneum tissue compared with control group ([1]; acid peritoneal dialysis fluid): significantly lower | Pentosidine concentration in peritoneal tissue ([1]; per mg of peritoneum (wet mass), acid peritoneal dialysis fluid 20 ml i.p., control group 0.065): 0.022 pmol/mg | 3-deoxyglucosone concentration in the peritoneal cavity relative to control group ([2]; neutral peritoneal dialysis fluid): less than one-half | 3-deoxyglucosone concentration in intraperitoneal fluid ([2]; neutral peritoneal dialysis fluid (pH 6.5 to 7.5) Dianeal-N PD-4-1.5 mixture, 20 ml i.p., control group 23.4): 10.3 µg/mL
